Drawing on patent US9802937B2, “Substituted pyrazolo{4,3-D}pyrimidines as kinase inhibitors” (ORIGENIS GMBH, priority 2011, dated 2017), this text covers IC50 and Ki for 29 molecules.

Broadly, the IC50 is the concentration that inhibits the measured activity by half.

Structures are written as SMILES.

For one assay, the target named is LRRK2 (Homo sapiens, UniProt Q5S007). Put plainly: LRRK2-LRRK2 G2019S-Assay (LanthaScreen Eu Kinase Binding Assay). The conditions noted are these: 5 nM LRRK2 or their mutants, 10 nM tracer 236, RT 1 h; read-out: LRRK2 Activities: IC50. Here is the method: In the assay LanthaScreen™ Eu Kinase Binding Assay by Invitrogen Corporation (Carlsbad) the effect of invention of a compound on the phosphorylation is determined by measurement of fluorescence intensity emission ratio based on the binding and displacement of a proprietary, Alexa Fluor® 647-labeled, ATP-competitive kinase inhibitor scaffold (kinase tracer) to the kinase of interest. Binding of the tracer to the kinase is detected using a europium-labeled anti-tag antibody, which binds to the kinase of interest. Simultaneous binding of both the tracer and antibody to the kinase results in a high degree of FRET (fluorescence resonance energy transfer) from the europium (Eu) donor fluorophore to the Alexa Fluor® 647 acceptor fluorophore on the kinase tracer. Binding of an inhibitor to the kinase competes for binding with the tracer, resulting in a loss of FRET. The fluorescence intensity ratio is directly proportional to the amount of peptide phosphorylation.
Sequence of LRRK2 (Q5S007 970-2527 limits assumed): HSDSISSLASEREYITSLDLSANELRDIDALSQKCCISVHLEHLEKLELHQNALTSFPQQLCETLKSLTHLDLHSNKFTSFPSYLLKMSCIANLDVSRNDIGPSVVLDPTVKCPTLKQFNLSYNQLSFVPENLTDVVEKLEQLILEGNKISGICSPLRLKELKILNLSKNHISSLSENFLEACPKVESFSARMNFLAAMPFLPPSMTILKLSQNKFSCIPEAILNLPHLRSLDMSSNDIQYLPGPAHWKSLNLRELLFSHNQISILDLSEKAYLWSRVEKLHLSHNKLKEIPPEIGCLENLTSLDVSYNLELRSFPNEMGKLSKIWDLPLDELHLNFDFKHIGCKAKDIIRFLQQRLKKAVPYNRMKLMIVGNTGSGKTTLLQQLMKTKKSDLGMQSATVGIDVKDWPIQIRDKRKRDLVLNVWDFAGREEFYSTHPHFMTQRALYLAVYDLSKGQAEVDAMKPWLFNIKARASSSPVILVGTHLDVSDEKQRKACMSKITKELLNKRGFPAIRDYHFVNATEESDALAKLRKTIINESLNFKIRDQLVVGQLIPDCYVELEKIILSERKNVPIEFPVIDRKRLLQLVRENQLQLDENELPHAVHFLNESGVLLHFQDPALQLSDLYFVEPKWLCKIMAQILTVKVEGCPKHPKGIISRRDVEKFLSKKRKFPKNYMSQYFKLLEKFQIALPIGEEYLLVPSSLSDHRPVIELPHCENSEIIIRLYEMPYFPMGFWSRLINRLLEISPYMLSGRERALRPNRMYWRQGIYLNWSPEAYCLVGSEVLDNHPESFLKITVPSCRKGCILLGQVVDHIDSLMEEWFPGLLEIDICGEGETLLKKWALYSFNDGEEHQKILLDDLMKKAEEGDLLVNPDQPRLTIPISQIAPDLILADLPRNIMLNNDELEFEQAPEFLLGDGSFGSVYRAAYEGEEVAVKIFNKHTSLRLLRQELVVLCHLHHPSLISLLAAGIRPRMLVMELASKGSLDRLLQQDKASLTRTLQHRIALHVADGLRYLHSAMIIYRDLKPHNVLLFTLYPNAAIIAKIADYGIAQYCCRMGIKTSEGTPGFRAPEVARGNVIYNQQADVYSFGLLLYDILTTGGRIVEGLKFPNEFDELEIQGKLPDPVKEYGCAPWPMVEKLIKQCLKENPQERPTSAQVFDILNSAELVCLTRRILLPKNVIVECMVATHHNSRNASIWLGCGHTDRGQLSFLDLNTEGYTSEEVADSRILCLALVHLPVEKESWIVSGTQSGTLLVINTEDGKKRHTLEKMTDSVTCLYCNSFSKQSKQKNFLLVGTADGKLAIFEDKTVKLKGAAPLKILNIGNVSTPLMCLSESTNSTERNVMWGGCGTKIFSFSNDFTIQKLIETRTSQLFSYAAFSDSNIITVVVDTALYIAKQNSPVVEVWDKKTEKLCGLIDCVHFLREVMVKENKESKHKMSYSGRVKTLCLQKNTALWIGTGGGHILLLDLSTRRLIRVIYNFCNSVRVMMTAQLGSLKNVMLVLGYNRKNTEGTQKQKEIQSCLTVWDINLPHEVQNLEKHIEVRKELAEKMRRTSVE
To the wells of an 384 well small volume plate (Greiner, Frickenhausen) are added (i) the compound under test in 5% DMSO/distilled water (5 μl), (ii) 5 μl of the kinase antibody mixture resulting in a final concentration 5 nM LRRK2 or their mutants, 2 nM EU-Anti-GST antibody in 1× kinase buffer A. The reaction was started with addition of (iii) 5 μl resulting in a final concentration of 10 nM tracer 236. The assay plate was incubated at RT for 1 h and fluorescence intensitiy readings were collected using a TECAN M1000 at two wavelengthes of λex 340/λem 615 nm and λex 340/λm 665 nm with a delay time of 100 μs and an integration time of 200 μs after 60 minutes. The emission ratio was calculated by division of the acceptor/tracer emission ([…]) by the antibody/donor emission ([…]). The inhibitor concentration was plotted versus the emission ratio to determine the IC50 using XLFit 5.0 (IDBS, Guildford) to fit to a sigmoidal dose response curve with a variable slope.
(Time-resolved FRET reads energy transfer from a long-lived donor to a nearby acceptor.)

In a further assay the target is T1, SYK kinase (Homo sapiens, UniProt P43405).
T1 construct: purchased Invitrogen, Carlsbad
Put plainly: SYK Assay (OMNIA KINASE ASSAY, SOX peptide fluorescence). It counts as biochemical. The conditions noted are these: apparent Ki calculated from the IC50 using the Cheng-Prusoff equation; 1 mM ATP, 30° C.; read-out: SYK Activities: Ki. The essentials: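 Continuous Omnia assay: SYK phosphorylation of SOX-labelled Tyr 7 peptide (10 µM) with 1 mM ATP and 0.2 mM DTT at 30 °C. Fluorescence (ex 360/em 485 nm) read every 30 s for 30 min. Reaction velocity versus inhibitor concentration gives IC50, converted to apparent Ki by Cheng-Prusoff.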

Regarding `COc1ccc(Nc2nc(-c3nccs3)nc3cn[nH]c23)cc1OC` [Example #185, N-(3,4-dimethoxyphenyl)-5-(thiazol-2-yl)-1H-pyrazolo[4,3-d]pyrimidin-7-amine], the IC50 at LRRK2 was in the range of 10 to 100 nM. Also, the Ki on SYK kinase is 10 to 100 nM.

As to `Cc1nc2cc(Nc3nc(-c4ccccc4)nc4cn[nH]c34)ccc2[nH]1` [Example #9, N-(2-methyl-1H-benzo[d]imidazol-5-yl)-5-phenyl-1H-pyrazolo[4,3-d]pyrimidin-7-amine], the IC50 at LRRK2 fell in the range of 100 to 1000 nM. For the same molecule, at SYK kinase, the Ki was 10 to 100 nM. On the same counts, the results for `O=C(O)c1ccc(Nc2nc(-c3ccccc3)nc3cn[nH]c23)cc1` [Example #10, 4-((5-phenyl-1H-pyrazolo[4,3-d]pyrimidin-7-yl)amino)benzoic-acid] are 100 to 1000 nM and under 10 nM. Turning to `COc1ccc(-c2nc(Nc3ccc4cn[nH]c4c3)c3[nH]ncc3n2)cc1` [Example #79, N-(1H-indazol-6-yl)-5-(4-methoxyphenyl)-1H-pyrazolo[4,3-d]pyrimidin-7-amine], at LRRK2, the half-inhibitory concentration (IC50) is 10 to 100 nM. In addition, the Ki on SYK kinase was under 10 nM. On the same counts, the results for `O=C1COc2ccc(Nc3nc(-c4ccsc4)nc4cn[nH]c34)cc2N1` [Example #146, 6-((5-(thiophen-3-yl)-1H-pyrazolo[4,3-d]pyrimidin-7-yl)amino)-2H-benzo[b][1,4]oxazin-3(4H)-one] are 100 to 1000 nM and 10 to 100 nM. On the same counts, the results for `CN1CCC(c2ccc(Nc3nc(-c4cccs4)nc4cn[nH]c34)cc2)CC1` [Example #209, N-(4-(1-methylpiperidin-4-yl)phenyl)-5-(thiophen-2-yl)-1H-pyrazolo[4,3-d]pyrimidin-7-amine] are 100 to 1000 nM and 10 to 100 nM.

As to `CNS(=O)(=O)c1cccc(Nc2nc(-c3cccs3)nc3cn[nH]c23)c1` [Example #265, N-methyl-3-((5-(thiophen-2-yl)-1H-pyrazolo[4,3-d]pyrimidin-7-yl)amino)benzenesulfonamide], on LRRK2, the concentration for half-maximal inhibition (IC50) fell in the range of 100 to 1000 nM. For the same molecule, the Ki on SYK kinase is 100 to 1000 nM.

Consider `O=C1CCc2ccc(Nc3nc(-c4cccc(C(=O)O)c4)nc4cn[nH]c34)cc2N1` [Example #195, 3-(7-((2-oxo-1,2,3,4-tetrahydroquinolin-7-yl)amino)-1H-pyrazolo[4,3-d]pyrimidin-5-yl)benzoic acid], for which the IC50 at LRRK2 was 10 to 100 nM. The Ki at SYK kinase was under 10 nM. Turning to `c1ccc(-c2nc(Nc3ccc4c(c3)NCCO4)c3[nH]ncc3n2)cc1` [Example #64, N-(5-phenyl-1H-pyrazolo[4,3-d]pyrimidin-7-yl)-3,4-dihydro-2H-benzo[b][1,4]oxazin-6-amine], the IC50 on LRRK2 was 10 to 100 nM. In addition, the Ki on SYK kinase is under 10 nM. Consider `CC(=O)N1CCN(c2ccc(Nc3nc(-c4ncco4)nc4cn[nH]c34)cc2)CC1` [Example #204, 1-(4-(4-((5-(oxazol-2-yl)-1H-pyrazolo[4,3-d]pyrimidin-7-yl)amino)phenyl)piperazin-1-yl)ethan-1-one], for which, at LRRK2, the IC50 was in the range of 100 to 1000 nM. Further, the Ki on SYK kinase was under 10 nM.

On to `c1ccc(-c2nc(Nc3ccc4[nH]nnc4c3)c3[nH]ncc3n2)cc1` [Example #2, N-(1H-benzo[d][1,2,3]triazol-5-yl)-5-phenyl-1H-pyrazolo[4,3-d]pyrimidin-7-amine], for which the IC50 at LRRK2 was in the range of 100 to 1000 nM. The Ki on SYK kinase was under 10 nM. On to `CS(=O)(=O)c1cccc(-c2nc(Nc3ccc(N4CCOCC4)cc3)c3[nH]ncc3n2)c1` [Example #251, 5-(3-(methylsulfonyl)phenyl)-N-(4-morpholinophenyl)-1H-pyrazolo[4,3-d]pyrimidin-7-amine], for which the concentration for half-maximal inhibition (IC50) at LRRK2 lay in the range of 100 to 1000 nM. Moreover, the Ki at SYK kinase was under 10 nM. On the same counts, the results for `Cc1nc2cc(Nc3nc(-c4ccc5c(c4)NCCO5)nc4cn[nH]c34)ccc2[nH]1` [Example #302, 5-(3,4-dihydro-2H-benzo[b][1,4]oxazin-6-yl)-N-(2-methyl-1H-benzo[d]imidazol-5-yl)-1H-pyrazolo[4,3-d]pyrimidin-7-amine] are 100 to 1000 nM and under 10 nM. On to `O=S(=O)(NC1CC1)c1cccc(Nc2nc(-c3cccs3)nc3cn[nH]c23)c1` [Example #261, N-cyclopropyl-3-((5-(thiophen-2-yl)-1H-pyrazolo[4,3-d]pyrimidin-7-yl)amino)benzenesulfonamide], for which, at LRRK2, the IC50 was in the range of 100 to 1000 nM. Take `COc1ccc(-c2nc(Nc3cc[nH]n3)c3[nH]ncc3n2)cc1OC` [Example #41, 5-(3,4-dimethoxyphenyl)-N-(1H-pyrazol-3-yl)-1H-pyrazolo[4,3-d]pyrimidin-7-amine]: on LRRK2, the IC50 fell in the range of 100 to 1000 nM. As for `c1ccc(-c2nc(Nc3ccc(N4CCCCC4)cc3)c3[nH]ncc3n2)cc1` [Example #3, 5-phenyl-N-(4-(piperidin-1-yl)phenyl)-1H-pyrazolo[4,3-d]pyrimidin-7-amine], the Ki at SYK kinase is 10 to 100 nM. Still for that read-out and setting: next, `COc1ccc(Nc2nc(-c3cc(F)cc(F)c3)nc3cn[nH]c23)cc1OC` [Example #274, 5-(3,5-difluorophenyl)-N-(3,4-dimethoxyphenyl)-1H-pyrazolo[4,3-d]pyrimidin-7-amine]: 100 to 1000 nM. Regarding `O=S(=O)(c1cccc(Nc2nc(-c3cccs3)nc3cn[nH]c23)c1)C(F)(F)F` [Example #267, 5-(thiophen-2-yl)-N-(3-((trifluoromethyl)sulfonyl)phenyl)-1H-pyrazolo[4,3-d]pyrimidin-7-amine], the Ki at SYK kinase is 100 to 1000 nM. On to `Fc1ccc(-c2nc(Nc3ccc(N4CCOCC4)cc3)c3[nH]ncc3n2)cc1F` [Example #273, 5-(3,4-difluorophenyl)-N-(4-morpholinophenyl)-1H-pyrazolo[4,3-d]pyrimidin-7-amine], for which the Ki on SYK kinase was 10 to 100 nM. Still for that read-out and setting: next, `COc1ccc(Nc2nc(-c3cccc(C(F)(F)F)c3)nc3cn[nH]c23)cc1OC` [Example #228, N-(3,4-dimethoxyphenyl)-5-(3-(trifluoromethyl)phenyl)-1H-pyrazolo[4,3-d]pyrimidin-7-amine]: 10 to 100 nM.

With `c1cc2ncc(-c3nc(Nc4ccc(N5CCOCC5)cc4)c4[nH]ncc4n3)cc2[nH]1` [Example #258, N-(4-morpholinophenyl)-5-(1H-pyrrolo[3,2-b]pyridin-6-yl)-1H-pyrazolo[4,3-d]pyrimidin-7-amine], the Ki at SYK kinase is 10 to 100 nM. Still for that read-out and setting: next, `CN1CCN(c2ccc(Nc3nc(-c4cccc(CC(=O)O)c4)nc4cn[nH]c34)cc2)CC1` [Example #176, 2-(3-(7-((4-(4-methylpiperazin-1-yl)phenyl)amino)-1H-pyrazolo[4,3-d]pyrimidin-5-yl)phenyl)acetic acid]: 10 to 100 nM; `COc1ccc(OC)c(-c2nc(Nc3ccc(OC)c(OC)c3)c3[nH]ncc3n2)c1` [Example #121, 5-(2,5-dimethoxyphenyl)-N-(3,4-dimethoxyphenyl)-1H-pyrazolo[4,3-d]pyrimidin-7-amine]: 100 to 1000 nM. Consider `CN1CCC(c2nc(Nc3cc(C4CC4)[nH]n3)c3[nH]ncc3n2)CC1` [Example #92, N-(5-cyclopropyl-1H-pyrazol-3-yl)-5-(1-methylpiperidin-4-yl)-1H-pyrazolo[4,3-d]pyrimidin-7-amine], for which the Ki on SYK kinase was 10 to 100 nM. Turning to `COC(=O)c1ccc(-c2nc(Nc3ccc4c(c3)NC(=O)CC4)c3[nH]ncc3n2)cc1` [Example #215, methyl 4-(7-((2-oxo-1,2,3,4-tetrahydroquinolin-7-yl)amino)-1H-pyrazolo[4,3-d]pyrimidin-5-yl)benzoate], at SYK kinase, the Ki is 100 to 1000 nM.

As for `O=C1CSc2ccc(Nc3nc(-c4cccs4)nc4cn[nH]c34)cc2N1` [Example #165, 6-((5-(thiophen-2-yl)-1H-pyrazolo[4,3-d]pyrimidin-7-yl)amino)-2H-benzo[b][1,4]thiazin-3(4H)-one], the Ki at SYK kinase was 10 to 100 nM.

Regarding `O=C(O)c1ccc(Nc2nc(-c3cn4ccccc4n3)nc3cn[nH]c23)cc1` [Example #128, 4-((5-(imidazo[1,2-a]pyridin-2-yl)-1H-pyrazolo[4,3-d]pyrimidin-7-yl)amino)benzoic-acid], the Ki on SYK kinase is under 10 nM. Same read-out and setting: next, `COC(=O)c1ccc(-c2nc(Nc3ccc(N4CCN(C)CC4)cc3)c3[nH]ncc3n2)cc1` [Example #213, methyl 4-(7-((4-(4-methylpiperazin-1-yl)phenyl)amino)-1H-pyrazolo[4,3-d]pyrimidin-5-yl)benzoate]: under 10 nM.

Take `c1ccc(-c2nc(Nc3ccc(N4CCCC4)cc3)c3[nH]ncc3n2)cc1` [Example #39, 5-phenyl-N-(4-(pyrrolidin-1-yl)phenyl)-1H-pyrazolo[4,3-d]pyrimidin-7-amine]: the Ki at SYK kinase is 100 to 1000 nM.
